Laboratory results as given in paper PMC12396409, “Screening and hit evaluation of a microbial metabolite library against the pathogenic Plasmodium falciparum and Toxoplasma gondii parasites” (International Journal for Parasitology: Drugs and Drug …, 2025).
Like-named read-outs stand apart in the source and are kept apart here.

Assays:
[1] = tested on: P. falciparum 3D7 parasites; experiment: P. falciparum growth inhibition assay, 1-cycle (72 h treatment), SYBR DNA staining (library screen at 2 μg/mL and dose-response); assay type: cell-based, Plasmodium falciparum
[2] = tested on: P. falciparum 3D7 parasites; experiment: P. falciparum growth inhibition assay, 2-cycle (120 h treatment), delayed-death screen and dose-response; assay type: cell-based, Plasmodium falciparum
[3] = tested on: T. gondii RH strain (RH-Tub-eYFP) tachyzoites; experiment: microbe, parasite or virus in culture; assay type: cell-based, Toxoplasma gondii; details: 72 h, 72 h; for percent parasite growth at 2 µg/mL: Toxoplasma gondii
[4] = T. gondii, screen at 2 μg/mL, replicate 1, read-out: Tg_72h_%Growth_Rep1
[5] = T. gondii, screen at 2 μg/mL, replicate 2, read-out: Tg_72h_%Growth_Rep2
[6] = library screen at 2 μg/mL, 72 h, % growth, replicate 1
[7] = library screen at 2 μg/mL, 72 h, % growth, replicate 2
[8] = library screen at 2 μg/mL, 120 h, % growth, replicate 1
[9] = library screen at 2 μg/mL, 120 h, % growth, replicate 2
[10] = library screen at 2 μg/mL, % growth, replicate 1
[11] = library screen at 2 μg/mL, % growth, replicate 2
[12] = Plasmodium falciparum, 3D7, P. falciparum, 72 h, screen at 2 μg/mL, replicate 1, read-out: Pf_72h_%Growth_Rep1
[13] = Plasmodium falciparum, 3D7, P. falciparum, 72 h, screen at 2 μg/mL, replicate 2, read-out: Pf_72h_%Growth_Rep2
[14] = Plasmodium falciparum, 3D7, P. falciparum, 120 h, screen at 2 μg/mL, replicate 1, read-out: Pf_120h_%Growth_Rep1
[15] = Plasmodium falciparum, 3D7, P. falciparum, 120 h, screen at 2 μg/mL, replicate 2, read-out: Pf_120h_%Growth_Rep2

Row | Molecule | percent parasite growth at 2 µg/mL [3, 4] [%] | percent parasite growth at 2 µg/mL [3, 5] [%] | Pf_72h_%Growth_Rep1 [1, 6] [%] | Pf_72h_%Growth_Rep2 [1, 7] [%] | Pf_120h_%Growth_Rep1 [2, 8] [%] | Pf_120h_%Growth_Rep2 [2, 9] [%] | Tg_72h_%Growth_Rep1 [3, 10] [%] | Tg_72h_%Growth_Rep2 [3, 11] [%] | further results
1 | C[C@H]1C/C=C/[C@H]2[C@@H]3O[C@]3(C)[C@@H](C)[C@H]3[C@H](Cc4ccccc4)NC(=O)[C@]32OC(=O)O/C=C/[C@@](C)(O)C1=O [Cytochalasin E] | 89.3 | 102 | – | – | – | – | – | – | activity at 2 µg/mL ([1]; Plasmodium falciparum, 3D7, 72 h, P. falciparum, 72 h, screen at 2 μg/mL, replicate 1, read-out: Pf_72h_%Growth_Rep1): 64%; activity at 2 µg/mL ([1]; Plasmodium falciparum, 3D7, 72 h, P. falciparum, 72 h, screen at 2 μg/mL, replicate 2, read-out: Pf_72h_%Growth_Rep2): 54.5%; activity at 2 µg/mL ([2]; Plasmodium falciparum, 3D7, 120 h, P. falciparum, 120 h, screen at 2 μg/mL, replicate 1, read-out: Pf_120h_%Growth_Rep1): 53.6%; activity at 2 µg/mL ([2]; Plasmodium falciparum, 3D7, 120 h, P. falciparum, 120 h, screen at 2 μg/mL, replicate 2, read-out: Pf_120h_%Growth_Rep2): 53.8%
2 | CC1=C[C@H]2O[C@@H]3[C@H](O)C[C@](C)([C@@]2(CO)[C@H](O)C1=O)[C@]31CO1 [Deoxynivalenol] | – | – | -0.53 | -5.17 | 19.31 | 5.93 | -0.04 | 0.56 | –
3 | Albofungin | – | – | 6.93 | 9.97 | -0.91 | 21.65 | -0.16 | 2.30 | –
4 | Cc1cc(O)c2c(c1)C(=O)c1cc(O)cc(O)c1C2=O [Emodin] | – | – | – | – | – | – | – | – | activity at 2 µg/mL ([1]; Plasmodium falciparum, 3D7, library screen at 2 μg/mL, 72 h, % growth, replicate 1, read-out: Pf_72h_%Growth_Rep1): 87.3%; activity at 2 µg/mL ([1]; Plasmodium falciparum, 3D7, library screen at 2 μg/mL, 72 h, % growth, replicate 2, read-out: Pf_72h_%Growth_Rep2): 86.6%; activity at 2 µg/mL ([2]; Plasmodium falciparum, 3D7, library screen at 2 μg/mL, 120 h, % growth, replicate 1, read-out: Pf_120h_%Growth_Rep1): 85.9%; activity at 2 µg/mL ([2]; Plasmodium falciparum, 3D7, library screen at 2 μg/mL, 120 h, % growth, replicate 2, read-out: Pf_120h_%Growth_Rep2): 114%; percent parasite growth at 2 µg/mL ([3]; library screen at 2 μg/mL, % growth, replicate 1, read-out: Tg_72h_%Growth_Rep1): 116%; percent parasite growth at 2 µg/mL ([3]; library screen at 2 μg/mL, % growth, replicate 2, read-out: Tg_72h_%Growth_Rep2): 87.4%
5 | CC[C@H]1OC(=O)C[C@@H](O)[C@H](C)[C@@H](O[C@@H]2O[C@H](C)[C@@H](O)[C@H](N(C)C)[C@H]2O)[C@@H](CCN2C[C@H](C)C[C@H](C)C2)C[C@@H](C)C(=O)/C=C/C(C)=C/[C@@H]1CO[C@@H]1O[C@H](C)[C@@H](O)[C@@H](OC)[C@H]1OC [Tilmicosin, reference compound] | 48.2 | 37.2 | – | – | – | – | – | – | activity at 2 µg/mL ([1]; Plasmodium falciparum, 3D7; P. falciparum, 2 μg/mL, 72 h; read-out: 1) Growth (%) at 72 h): 43.1%; activity at 2 µg/mL [1, 12]: 45%; activity at 2 µg/mL [1, 13]: 41.2%; 3) Fold change (72 h/120 h) ([2]; P. falciparum, growth at 72 h / growth at 120 h, 2 μg/mL): 3.0; activity at 2 µg/mL ([2]; Plasmodium falciparum, 3D7; P. falciparum, 2 μg/mL, 120 h; read-out: 2) Growth (%) at 120 h): 14.5%; activity at 2 µg/mL [2, 14]: 22.4%; activity at 2 µg/mL [2, 15]: 6.63%
6 | C/C=C/C/C=C/CCC(=O)[C@H]1O[C@H]1C(N)=O [Cerulenin] | 79 | 81.8 | – | – | – | – | – | – | activity at 2 µg/mL [1, 12]: 86.4%; activity at 2 µg/mL [1, 13]: 80.4%; activity at 2 µg/mL [2, 14]: 137%; activity at 2 µg/mL [2, 15]: 85.1%
7 | CC(=O)c1c(O)cc(O)c(C(C)=O)c1O [Diacetylphloroglucinol] | – | – | 86.52 | 90.35 | 64.84 | 102.18 | 140.70 | 94.75 | –
8 | CC[C@H]1NC(=O)[C@@H](NC(=O)c2ncccc2O)[C@@H](C)OC(=O)[C@H](c2ccccc2)NC(=O)[C@@H]2CC(=O)CCN2C(=O)[C@H](Cc2ccccc2)N(C)C(=O)[C@@H]2CCCN2C1=O [Virginiamycin S1] | – | – | – | – | – | – | – | – | Pf_72h_%Growth_Rep1 ([1]; P. falciparum, 72 h, screen at 2 μg/mL, replicate 1): 88.54%; Pf_72h_%Growth_Rep2 ([1]; P. falciparum, 72 h, screen at 2 μg/mL, replicate 2): 126.74%; Pf_120h_%Growth_Rep1 ([2]; P. falciparum, 120 h, screen at 2 μg/mL, replicate 1): 110.70%; Pf_120h_%Growth_Rep2 ([2]; P. falciparum, 120 h, screen at 2 μg/mL, replicate 2): 75.61%; Tg_72h_%Growth_Rep1 ([3]; T. gondii, screen at 2 μg/mL, replicate 1): 137.70%; Tg_72h_%Growth_Rep2 ([3]; T. gondii, screen at 2 μg/mL, replicate 2): 85.91%
9 | CCC(=O)Nc1c2sscc-2n(C)c1=O [Aureothricin] | – | – | 7.64 | 5.69 | 11.34 | -0.06 | 1.55 | 1.43 | –
